Data: patent US11337971B2, “Dopamine D3 receptor selective antagonists/partial agonists and uses thereof” (THE UNITED STATES OF AMERICA, AS REPRESENTED BY THE …, priority 2018, dated 2022)
“Also recorded” adds a separate entry of the source.

Legend:
Male Long-Evans rats [1] = conditions: Rice et al, 2012; cited from earlier work
[2] = system: opioid-induced conditioned place preference; conditions: Ashby et al, 2003; cited from earlier work
Male Long-Evans rats [3] = assay: Hot plate test of oxycodone-induced antinociceptive response in rats; type: in vivo, rat; conditions: oxycodone in vehicle pretreated group
Procedure: Nociceptive tests were performed using a hot plate device (Model 39, IITC Life Science Inc., Woodland Hills, Calif., USA). The rat was put inside a transparent cage on the hot plate (52±0.2° C.). When thermal nociceptive signs such as licking, stomping the hind paw, or jumping from the plate appeared, the rat was immediately removed from the cage. […] The cut-off time for the test was 60 s to avoid tissue damage.
These experiments involved 8 groups of rats (n=8-9/group) in 2 series of repeated testing: 4 groups were used to test the effects of compound (±)-29 pretreatment on the time course of antinociception induced by oxycodone at a single dose, and another 4 groups were used to test the effects of compound (±)-29 pretreatment on the antinociception induced by various oxycodone doses. Each rat was first habituated to the testing environment for 1 h, followed by placement on the hot plate without treatment to obtain baseline response latencies. The groups in the time course test received baseline testing. Then, group 1 was pretreated with vehicle, and the other 3 groups were pretreated with a dose of compound (±)-29 (5, 15 or 25 mg/kg, i.p.). Fifteen min following the pretreatment, each rat was challenged with a saline injection (1 ml/kg) and, 30 min later, tested for the second time on the hot plate. On the next day, each group received the same pretreatment as on day 1, but challenged with oxycodone (2 mg/kg, i.p.), and each rat was then tested again at 30-, 60- and 120-min following oxycodone challenge. […] Data were calculated as % of maximum percentage effect (% MPE) using the formula: (treatment value−basal value)/(cutoff value−basal value)×100.
Methods: Compound (±)-29 was administered 15 minutes before saline or oxycodone challenge at 5 mg/kg, 15 mg/kg, and 25 mg/kg. […] The rat was then immediately removed from the hot plate and the time latency was recorded.

rhesus monkeys = assay: Thermal tail withdrawal model of oxycodone antinociception in rhesus monkeys; type: in vivo, rhesus monkey; conditions: FIG. 6B

For N#Cc1ccc2c(c1)CCN(CCC1CCC(NC(=O)c3ccnc4ccccc34)CC1)C2 (stereo not shown) [SB-277011A], which “CPA induced by naloxone-precipitated withdrawal” value (Male Long-Evans rats [1]) is on record?
The value was “significantly blocked CPA induced by naloxone-precipitated withdrawal”.

And the “opioid-induced conditioned place preference” value [2]?
Its value is “significantly inhibiting opioid-induced conditioned place preference”.

For COc1ccc2c3c1O[C@H]1C(=O)CC[C@@]4(O)[C@@H](C2)N(C)CC[C@]314 [Oxycodone, reference compound], which “% MPE, hot plate” value (Male Long-Evans rats [3]) is on record?
Its value is “significantly increased % MPE; also recorded: dose-dependently increased MPE %”.

Which “effect on oxycodone antinociception” value (rhesus monkeys) does the source give for O=C1CC[C@@]2(O)[C@H]3Cc4ccc(O)c5c4[C@@]2(CCN3CC2CC2)[C@H]1O5 [naltrexone, reference compound] here?
Its value is “deleterious effects on oxycodone antinociception”.
